Patent US10124065B2, “Lipids and lipid compositions for the delivery of active agents” (Novartis AG, priority 2013, dated 2018)

Columns and labels:
[1] = Measurement of mRNA encapsulation (Quant-iT Ribogreen); format: physicochemical; details: leptin mRNA in lipid nanoparticles (cationic lipid, DSPC, cholesterol, stealth lipid)
Protocol: All equipment and disposable supplies were certified free of RNase activity by the manufacturer or rendered RNase free by use of the RNaseZap reagent (LifeTechnologies). mRNA was encapsulated at a cationic lipid amine to mRNA phosphate (N:P) molar ratio of 4:1. Lipids (cationic lipid, DSPC, cholesterol and lipidated PEG or stealth lipid) were dissolved in ethanol. The molar ratios were […], respectively. The mixture was sonicated briefly, then gently agitated for 5 minutes and then maintained at 37° C. until use. mRNA was exchanged into citrate buffer pH 5.8-6.0 by use of Amicon Ultra-15 centrifugal concentrators, and the final concentration was adjusted to 0.5 mg/ml and held at 37° C. until use. An equal volume of lipids in ethanol, mRNA in citrate buffer, and citrate buffer alone were drawn into disposable syringes. Tubing leading from syringes containing lipids and mRNA are attached to the T junction, and tubing leading from the syringe containing citrate buffer alone was paired with the tubing exiting the T-junction over a collection vessel containing a stir bar on an active stir plate. Syringes were placed in a syringe pump set to expel contents at a flow rate of 1 ml per minute.
The pump was activated, and the collected mRNA in lipid nanoparticles was transferred to SnakeSkin dialysis tubing (10,000 MWCO, Thermo Scientific). Material was dialyzed against RNAse- and pyrogen-free 1× phosphate buffered saline overnight at 4° C.
Percent encapsulation of mRNA in lipid nanoparticles was determined using the Quant-iT Ribogreen RNA Assay kit (Life Technologies). The LNP-mRNA suspension was assayed in buffer (mRNA outside the particle), and buffer plus Triton X-100 detergent (total mRNA). The difference calculated was the mRNA inside the particle. A 1000 ng/mL stock from the RNA provided in the kit was prepared and used to generate a standard curve (0 ng/ml, 15.63-1000 ng/ml) in TE and TE+0.75% Triton X-100. LNP-mRNA samples in TE buffer and TE buffer+0.75% Triton X-100 were prepared with appropriate dilution so that reading was in the range of standard curve (400-2,000 fold). In a 384-well plate (Costar non-treated #3573) 0.04 ml of standard (in duplicate) or sample (in triplicate) were added per well. Ribogreen reagent was diluted 240-fold in TE buffer and added 0.06 ml per well. The contents of wells were mixed and fluorescence was measured (excitation=480 nm, emission=520 nm). Background values (no RNA) were subtracted from standard and test sample values and the concentrations of RNA were determined in the samples using the standard curves. The percent encapsulation of the sample was determined by dividing the difference in concentrations between sample+triton and sample in buffer alone by the sample+triton concentration.

[2] = Polydispersity index (PDI) of lipid nanoparticle (dynamic light scattering); format: physicochemical
Protocol: Unless indicated otherwise, all PDIs referred to herein are the PDI of the fully formed nanoparticle, as measured by dynamic light scattering on a Malvern Zetasizer. The nanoparticle sample was diluted in phosphate buffered saline (PBS) so that the count rate was approximately 200-400 kcts. The data is presented in Tables 4 and 5 as a weighted average of the intensity measure.

human leptin = assay: Mouse intravenous tail vein injection of modified synthetic leptin mRNA, human leptin ELISA; format: in vivo, C57BL/6 mouse; details: human leptin in mouse plasma, 10 μg leptin mRNA, 24 h
Protocol: Before the tail vein injection, mouse body weights were recorded and diet weighted, with mice grouped according to their body weights. Mice were prepared by warming them under a heating lamp for ˜2 minutes, with the mice about 12 inches from heat lamp.
For the tail vein injection procedure, the mice were placed in a restrainer and their tails cleaned with 70% alcohol. A 27 gauge needle (Becton Dickinson, Catalogue #305109) connected with a 1 ml syringe (Becton Dickinson, Catalogue #309659) was inserted into the tail vein, with bevel facing up, and the syringe plunger was pulled backwards to ensure blood is drawn into the syringe. The desired volume of modified synthetic leptin mRNA was injected by hand with moderate pressure and speed. The needle was then withdrawn and bleeding stopped by adding pressure to injection site with gauze.
Single housed, 8-9 week old, male C57BL/6 mice were used for the in vivo study. FPLC purified modified synthetic leptin mRNA (SEQ ID NO: 5) in which the uridines were substituted with pseudouridine was packaged in a cationic lipid (N:P molar ratio=8:1) and then were diluted in injectable saline at a dose of 10 μg per average group body weight.
On day 0, animals were weighed and sorted according to average body weight. Mice were dosed, and food intake (FI) was recorded, on each of days 1-7 and days 9, 11, and 16.
Human leptin in mouse plasma was measured by ELISA. Antibodies purchased from the R&D Systems duoset (Cat# DY398E, part#840279 for capture antibody and part#840280 for detection antibody) were reconstituted using PBS and titered, again using PBS. The capture antibody was coated at 4 ug/ml in 30 ul/well on a white Nunc® Maxisorp 384 well plate (Cat#460372). After an overnight incubation at room temperature the capture antibody was aspirated and the plate blocked for 2 hours at room temperature with 90 ul/well of KPL milk blocker (Cat#50-82-00). Once the incubation was completed the plate was aspirated and recombinant standards and samples were added to the plate at 30 ul/well for 2 hours at 37° C. while shaking at 600 rpm. Sample/standard dilutions were made using casein sample diluent. Washing/aspiration 3 times with 100 ul/well followed, using Teknova plate wash solution (Cat# P1192). Next, detection antibody was diluted using casein detection antibody diluent to 12.5 ng/ml and added at 30 ul/well for 2 hours room temperature. After this incubation, the plate was washed again and a solution of poly-streptavidin-HRP (Cat#21140) at a 1:1250 dilution in HRP dilution buffer was added to each well (30 ul/well) and incubated for 30 minutes room temperature. A final wash/aspiration removed the HRP solution and a chemiluminescent substrate was added at 30 ul/well (Cat#1859678 & 1859679). The plate was quickly read using a SpectramaxM5 plate reader with a 50 ms integration time. The dynamic range of the ELISA is from 100-2,000 pg/ml (6.25-125 pM) of human leptin.

[3] = Particle size of lipid nanoparticle (dynamic light scattering, Malvern Zetasizer); format: physicochemical
In short: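 Sizes are average diameters of fully formed nanoparticles measured by dynamic light scattering. Samples were diluted in PBS to a count rate of about 200–400 kcts. Values are intensity-weighted Z-average sizes.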

[4] = FVII siRNA LNP, Chol/DSPC/S010, molar ratio 45/44/9/2
[5] = leptin mRNA lipid nanoparticles
[6] = FVII siRNA LNP, Chol/DSPC/S010, molar ratio 45/44/9/2, Z-average

Row | % encapsulation [1] [%] | PDI [2, 4] | PDI [2, 5] | Size (nm) [3, 6] [nm] | Size (nm) [3, 5] [nm] | Compound | Leptin expression IV-C57BI/6, 24 h (human leptin) [ng/mL]
1 | 80.9 | 0.073 | 0.090 | 87.54 | 164.7 | CCCCCCCCCCCCOC(=O)CCCCCOc1cc(CN(C)C)cc(OCCCCCC(=O)OCCCCCCCCCCCC)c1 [Example 90, didodecyl 6,6′-((5-((dimethylamino)methyl)-1,3-phenylene)bis(oxy))dihexanoate] | 0.74
2 | 71.1 | 0.043 | 0.150 | 178.2 | 164.0 | CCCCCCCC(=O)OCCCCCCCCCCOC(=O)CCC(=O)OCc1cc(COC(=O)CCC(=O)OCCCCCCCCCCOC(=O)CCCCCCC)cc(CN(C)C)c1 [Example 78, O,O′-((5-((dimethylamino)methyl)-1,3-phenylene)bis(methylene))bis(10-(octanoyloxy)decyl)disuccinate] | 0.96
